How the values were obtained:
Format in all cases: cell-based, human
Conditions in all cases: 0.5 μM decitabine, mean ± SD of viable cells, 3 experiments
XG-6 = experiment: Cell viability of HMCLs by trypan blue exclusion (XG-6)
LP1 = experiment: Cell viability of HMCLs by trypan blue exclusion (LP1)
XG-5 = experiment: Cell viability of HMCLs by trypan blue exclusion (XG-5)
XG-20 = experiment: Cell viability of HMCLs by trypan blue exclusion (XG-20)
XG-7 = experiment: Cell viability of HMCLs by trypan blue exclusion (XG-7)

Nc1ncn([C@H]2C[C@H](O)[C@@H](CO)O2)c(=O)n1 [5-aza, 5-aza-2′-deoxycytidine] was tested, and the “Cell viability (%) Day 3 5-aza” value (XG-6) was 90 ± 1%, the “Cell viability (%) Day 3 5-aza” value (LP1) was 91 ± 2% and the “Cell viability (%) Day 3 5-aza” value (XG-5) was 65 ± 5%. For the same compound, the “Cell viability (%) Day 3 5-aza” value (XG-20) was 91 ± 3% and the “Cell viability (%) Day 3 5-aza” value (XG-7) was 90 ± 2%.
